Test results taken from patent US11292773B2, “Small molecule inhibitors of BCL-2-associated death promoter (BAD) phosphorylation” (NATIONAL UNIVERSITY OF SINGAPORE, priority 2017, dated 2022).
“Also recorded” adds a separate entry of the source.

Experiments:
[1] = target: T1, Human recombinant BAD protein (Homo sapiens, UniProt Q92934); test: Surface plasmon resonance analysis (BIAcore); type: binding; settings: SPR
T1 construct: purchased MyBiosource, USA MBS143012
T1 sequence (Q92934 1-168): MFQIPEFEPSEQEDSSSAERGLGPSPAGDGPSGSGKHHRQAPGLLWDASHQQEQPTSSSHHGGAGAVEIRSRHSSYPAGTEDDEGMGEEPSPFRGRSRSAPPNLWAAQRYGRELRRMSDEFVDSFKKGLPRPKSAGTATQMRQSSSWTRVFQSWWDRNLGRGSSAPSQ
Experimental: To provide molecular interaction of the most promising candidate, NPB binding affinity to BAD, we performed surface plasmon resonance (SPR) measurements with immobilized BAD subunit using NPB as the analyte. We know that BAD could bind to BAD subunit in vitro. […] The recombinant BAD was immobilized on CM5 sensor chip. To determine the association and dissociation curves, various concentrations of NPB were injected individually onto the surface of a sensor chip coated with BAD. The overlaid sensorgrams shown in FIG. 14 were analyzed collectively.
Molecular interactions were analyzed based on surface plasmon resonance using a BIAcore-2000 system (BIAcore AB, Uppsala, Sweden). Human recombinant BAD protein (Catalog No. MBS143012, MyBiosource, USA) was immobilized on a sensor chip as described by the manufacturer protocol. To examine the interaction of BAD with NPB, various concentrations of NPB (20 to 100 μM) in the running buffer (HBS-EP, pH 7.4, BIAcore AB) were injected onto the surface of the BAD-immobilized sensor chip with a flow rate of 15 μl/min as per the manufacturer's directions. NPB was allowed to interact with BAD subunit for 2 min for association and dissociation, respectively, after which the sensor chip was regenerated by injecting 1 M NaCl for 2 min before the next injection. Using BIA evaluation software 4.1 (BIAcore AB), the kinetic parameters were such as association and dissociation rate constants (ka and kd), dissociation equilibrium constants (Kd) using a 1:1 binding model with mass transfer. Sensograms obtained were overlaid using BIA evaluation software.

[2] = system: carcinoma cell lines (mammary, endometrial, ovarian, liver, colon, prostate, pancreatic); test: ApoTox-Glo Triplex assay (viability, caspase 3/7, cytotoxicity) in carcinoma cell lines; type: cell-based, human; settings: all tested cancer cell lines
Text: (§1) NPB was subsequently evaluated against panel of normal immortalized mammary epithelial cells (MCF10A and MCF12A), normal hepatocytes (LO2), mammary carcinoma (BT549, MDA-MB-231, MCF7, T47D, BT474), endometrial cancer (Ishikawa, Ecc1, RL95-2, AN3), ovarian cancer (SK-OV-3, OVCAR-2, Caov-3, HEY C2, Ovca433), liver cancer (Hep3B, H2P, H2M), colon cancer (HCT116, DLD-1, Caco-2), prostate cancer (PC3, LNCaP, DU145) and pancreatic cancer (AsPC-1, BxPC-3) cells. […] Using a Laplacian-modified Naïve Bayes classifier, NPB is subjected to in silico analysis which anticipates the human target of NPB as BAD protein.
(§2) Effect of NPB (5 μM) on carcinoma cell viability including, mammary, endometrial, ovarian, liver, colon, prostate, and pancreatic carcinoma cell lines. (A) Cell viability (B) caspase 3/7 activities and (C) cytotoxicity were evaluated using ApoTox-GIo™ Triplex Assay Kit as described in methodology. Statistical significance was assessed by an unpaired two-tailed Student's t-test using GraphPad Prism5. The column represents mean of triplicate determinations; bars, ±SD. **P<0.001, *P<0.05. Note: RFU, relative fluorescence unit; RLU, relative luminescence unit, #; non-transformed, immortalized epithelial cells; MB-231, MDA-MB-231. […]

[3] = system: various kinases in MCF7 cells; test: Human Phospho-Kinase Antibody Array; type: cell-based; settings: NPB 10 μM, 12 h, vs DMSO
Experimental: (A) Western blot analysis was used to assess the level of BAD Ser99 phosphorylation of pBAD, BAD, pAKT, and AKT in MCF7 cells after an increasing period of treatment with NPB (10 μM). Soluble whole cell extracts were run on an SDS-PAGE and immunoblotted as described in methodology. The sizes of detected protein bands in kDa are shown on the left side. (B) Kinases and phosphorylated substrates were detected using a Western Blot array (Proteome Profiler Human Phospho-Kinase Array Kit. MCF7 cells treated with NPB (10 μM) or DMSO for 12 h at 37° C. before preparation of cell lysate. Mean pixel density was analysed using ImageJ software and is represented below.
To elucidate the possibility that NPB decreased hBAD Ser99 phosphorylation by modulation of kinase activity, we assessed the effects of NPB on various kinases using Human Phospho-Kinase Antibody Array Kit from R&D Systems.

[4] = system: normal hepatocytes (LO2) and immortalized mammary epithelial cells (MCF10A and MCF12A); test: Activity on normal immortalized cells; type: cell-based, human
Text: as §1, §2

Kd ([1]; 1:1 binding model with mass transfer, read-out: dissociation equilibrium constants (Kd)): 37.1 µM
kon ([1]; immobilized BAD, NPB 20 to 100 μM, read-out: association rate constant): 1400 M⁻¹ s⁻¹
koff ([1]; immobilized BAD, NPB 20 to 100 μM, read-out: dissociation rate constant): 0.054 s⁻¹
SMILES: O=C(NC1CCCC1)c1cccc(C(c2ccccc2O)N2CCN(c3cccc(Cl)c3Cl)CC2)c1 (stereo not drawn) [NPB, N-cyclopentyl-3-((4-(2,3-dichlorophenyl)piperazin-1-yl)(2-hydroxyphenyl)methyl) benzamide]
apoptosis in cancer cell lines [2]: significantly enhanced; also recorded: induce apoptotic cell death
kinase activity or phosphorylated substrates [3]: No significant changes
activity / cytotoxic effect on normal cells [4]: no substantial activity; also recorded: did not have cytotoxic effect
